Tests used:
IRE1α endonuclease = molecular target: T1, IRE1α endonuclease (Rattus norvegicus, UniProt A0A4Y1YQ52); test: XBP1 splicing assay in VSMCs; format: cell-based
T1 construct: endogenous in cells; host or cells: primary aortic vascular smooth muscle cells from 5-week old WKY rats
Description: VSMCs were treated with tunicamycin (1 μg/ml) and either 4μ8c (30 μM) or STF-083010 (60 μM) for 6 h or 24 h. (A) Agarose gel for assessment of XBP1 splicing after 6 h of treatment with tunicamycin and densitometric quantification. (B) Western blot for assessment of ER chaperone expression after 24 h tunicamycin treatment with or without inhibition of IRE1α by 4μ8c. Data is presented as mean±SEM. *, p<0.05 vs. Vehicle; #, p<0.05 vs. Tm.
VSMCs were cultured in DMEM/F12 containing 1% FBS. Confluent cells were treated with L-ascorbic acid-2-phosphate (100 μg/ml) and either TGF-β1 (5 ng/ml) or Ang II (1 μM). (A) Agarose gel for assessment of TGF-β1-induced XBP1 splicing in VSMCs after 24 h. (B) Picro-Sirius Red assay for measurement of collagen deposition induced by combined TGF-β1 and AA2P treatment after 72 h, and inhibition by 4μ8c and STF-083010. (C) Western blot for assessment of collagen chaperone expression after treatment of TGF-β1 and 4μ8c for 48 h. *, p<0.05. (D) Measurement of Ang II-induced collagen production and inhibition by 4μ8c and STF-083010 after 72 h.
VSMCs were isolated from the aortas of 5-week old WKY rats using the explant method^29. The thoracic aorta was removed from the animal and placed in ice-cold 5× Antibiotics-Antimycotics solution (ThermoFisher). The adventitia was gently removed and the aorta was cut longitudinally. The endothelial layer was removed by gentle scraping with forceps. […]
Total RNA was extracted from cultured cells and rat tissues using the TRIzol reagent (ThermoFisher) according to manufacturer's instructions. RNA concentration and purity were measured using a Nanodrop ND-1000 spectrophotometer (NanoDrop Technologies, Inc.). […]
Aortic VSMCs were isolated from normotensive WKY rats and used for in vitro experiments. […] To test the ability of these compounds to block the IRE1α endonuclease, XBP1 splicing was measured in VSMCs treated with the ER stress inducer tunicamycin for 6 h with or without pre-treatment by 4μ8c or STF-083010. […]

[1] = tested on: SHR/L-NAME model of hypertension; test: Radiotelemetry blood pressure and heart rate in L-NAME-treated SHRs; format: in vivo, rat
Description: 12-14 week old male SHRs were implanted with radiotelemetry devices and randomized to receive vehicle, L-NAME (50 mg/L) or L-NAME and 4μ8c (2.5 mg/kg/day i.p.) for 18 days. Systolic (A), diastolic (B), and heart rate (C) were monitored. Data is presented as mean±SEM. *, p<0.05 vs. NT; #, p<0.05 vs. L-NAME. N≥4 per group.
12-14 week old male SHRs were used to determine the effect of pharmacological IRE1α inhibition on L-NAME-induced vascular stiffening. They were maintained on a 12-hour light-dark cycle with rat chow and water ad libitium. Animals were implanted with radio-telemetry devices (Data Science International, St. Paul, Minn., USA) one week before the start of the study. Animals were randomized into one of three groups (n=6 per group): 1) No treatment, 2) L-NAME (50 mg/L in drinking water, Sigma-Aldrich), or 3) L-NAME+4μ8c (2.5 mg/kg/day i.p., Millipore). 4μ8c was administered in a vehicle of 10% DMSO, 10% Tween-80 and 80% normal saline. Animals in Group 2 received daily injections of the vehicle. All animals were fed a normal chow diet. At 18 days, animals were sacrificed, organs were harvested and the aorta was collected for mechanical and structural analysis. All animal work was performed according to the guidelines approved by the McMaster University Animal Research Ethics Board.
12-14 week old SHRs were implanted with radiotelemetry devices and treated with the nitric oxide synthase inhibitor L-NAME for 18 days. Rats were given daily injections of either vehicle or 4μ8c (2.5 mg/kg/day i.p.). […] At Day 6, SBP had increased from 187.4±5.4 mmHg to 228.0±15.5 mmHg (p<0.05) and DBP from 134.8±6.5 mmHg to 174.5±13.6 mmHg. At Day 14, SBP and DBP reached a peak of 262.6±13.9 mmHg and 210.4±14.8 mmHg, respectively. […] In the L-NAME+4μ8c group, SBP increased from 166.6±8.4 mmHg at baseline to 216.7±4.8 mmHg at Day 6 while DBP increased from 124.7±5.5 mmHg at baseline to 166.2±8.2 mmHg at Day 6. SBP and DBP peaked at 232.3±5.4 mmHg and 192.1±17.0 mmHg, respectively, at Day 9. […] Vessels were stained with PicroSirius Red and imaged using a light microscope (FIG. 5A). Collagen content in homogenized aortic tissue was measured using the PSR-based colorometric assay.

[2] = L-NAME+4μ8c group, peak at Day 9
[3] = SHR, L-NAME 50 mg/L, 4μ8c 2.5 mg/kg/day i.p., 18 days

T1 sequence (A0A4Y1YQ52 21-977): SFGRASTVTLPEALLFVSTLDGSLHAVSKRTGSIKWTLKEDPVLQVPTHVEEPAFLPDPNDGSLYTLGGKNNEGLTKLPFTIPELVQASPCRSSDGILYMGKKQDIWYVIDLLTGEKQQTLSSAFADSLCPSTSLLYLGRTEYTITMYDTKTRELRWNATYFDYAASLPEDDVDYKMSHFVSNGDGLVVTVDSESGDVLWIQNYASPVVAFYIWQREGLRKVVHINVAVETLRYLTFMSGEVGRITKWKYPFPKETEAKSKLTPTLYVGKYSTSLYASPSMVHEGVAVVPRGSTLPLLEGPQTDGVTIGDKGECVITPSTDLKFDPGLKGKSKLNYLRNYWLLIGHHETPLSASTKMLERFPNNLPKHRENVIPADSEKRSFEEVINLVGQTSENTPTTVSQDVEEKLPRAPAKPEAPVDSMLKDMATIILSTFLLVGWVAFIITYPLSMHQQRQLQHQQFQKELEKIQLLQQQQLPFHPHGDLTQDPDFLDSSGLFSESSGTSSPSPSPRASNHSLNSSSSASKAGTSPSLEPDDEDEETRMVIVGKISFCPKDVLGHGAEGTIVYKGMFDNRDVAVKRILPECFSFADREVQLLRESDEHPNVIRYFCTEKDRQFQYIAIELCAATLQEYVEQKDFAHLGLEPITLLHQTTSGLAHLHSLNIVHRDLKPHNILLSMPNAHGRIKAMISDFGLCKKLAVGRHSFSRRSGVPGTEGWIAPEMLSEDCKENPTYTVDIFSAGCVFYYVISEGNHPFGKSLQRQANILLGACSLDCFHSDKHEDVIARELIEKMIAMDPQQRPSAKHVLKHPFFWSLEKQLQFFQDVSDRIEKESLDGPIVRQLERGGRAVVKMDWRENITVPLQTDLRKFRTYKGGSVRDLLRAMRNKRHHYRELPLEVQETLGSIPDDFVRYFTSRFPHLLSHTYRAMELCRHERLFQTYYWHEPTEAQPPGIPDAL

TGF-β1 induced XBP1 splicing (IRE1α endonuclease; TGF-β1 (5 ng/ml) 24 h, co-treatment, FIG. 2A): blocked | spliced-to-unspliced XBP1 ratio (IRE1α endonuclease; tunicamycin (1 μg/ml) 6 h, 4μ8c 30 μM or STF-083010 60 μM, FIG. 1A): reduced
Compound: Cc1cc(=O)oc2c(C=O)c(O)ccc12 [4μ8c, 7-Hydroxy-4-methyl-2-oxo-2H-chromene-8-carbaldehyde]
DBP ([1]; L-NAME+4μ8c group, Day 6): 166.2±8.2 mmHg | SBP ([1]; L-NAME+4μ8c group, Day 6): 216.7±4.8 mmHg | DBP ([1]; L-NAME+4μ8c group, baseline): 124.7±5.5 mmHg | SBP ([1]; L-NAME+4μ8c group, baseline): 166.6±8.4 mmHg | DBP peak [1, 2]: 192.1±17.0 mmHg | SBP peak [1, 2]: 232.3±5.4 mmHg | effect on L-NAME-induced elevation in blood pressure [1, 3]: did not have an effect | effect on L-NAME-induced elevation in heart rate [1, 3]: did not have an effect

— patent US20190038597A1, “PREVENTION OF VASCULAR AND CARDIAC FIBROSIS VIA IRE1ALPHA INHIBITION” (McMaster University, priority 2017, published 2019)
